The values below come from publication PMC3914206.

Experiment [1] deals with T1, panel of 442 kinases (Homo sapiens, UniProt P51817).
T1 construct: purchased KINOMEscan
T1 sequence (P51817 1-358): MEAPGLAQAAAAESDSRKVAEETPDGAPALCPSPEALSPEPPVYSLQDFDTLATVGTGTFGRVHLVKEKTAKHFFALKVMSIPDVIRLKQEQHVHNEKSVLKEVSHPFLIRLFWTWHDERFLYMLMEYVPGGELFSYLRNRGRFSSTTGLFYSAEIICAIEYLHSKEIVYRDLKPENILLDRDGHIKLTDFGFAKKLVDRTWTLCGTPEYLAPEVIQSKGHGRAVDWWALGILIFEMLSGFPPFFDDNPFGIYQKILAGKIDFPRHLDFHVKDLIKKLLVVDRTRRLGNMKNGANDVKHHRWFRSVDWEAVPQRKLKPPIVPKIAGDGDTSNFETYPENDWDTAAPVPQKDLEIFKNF
The experiment is classed as binding. The note with it: Compound Concentration 10 µM. The text has this:
(§1) We assessed the selectivity of members of this scaffold using the KINOMEscan methodology across a near comprehensive panel of 442 kinases [[18,27]].

Experiment [2] has as its target T2, panel of 442 kinases (Homo sapiens, UniProt O60674).
T2 construct: purchased KINOMEscan
The experiment is classed as binding. Particulars: Compound Concentration 10 µM.
Description: as §1

T2 sequence (O60674 whole entry): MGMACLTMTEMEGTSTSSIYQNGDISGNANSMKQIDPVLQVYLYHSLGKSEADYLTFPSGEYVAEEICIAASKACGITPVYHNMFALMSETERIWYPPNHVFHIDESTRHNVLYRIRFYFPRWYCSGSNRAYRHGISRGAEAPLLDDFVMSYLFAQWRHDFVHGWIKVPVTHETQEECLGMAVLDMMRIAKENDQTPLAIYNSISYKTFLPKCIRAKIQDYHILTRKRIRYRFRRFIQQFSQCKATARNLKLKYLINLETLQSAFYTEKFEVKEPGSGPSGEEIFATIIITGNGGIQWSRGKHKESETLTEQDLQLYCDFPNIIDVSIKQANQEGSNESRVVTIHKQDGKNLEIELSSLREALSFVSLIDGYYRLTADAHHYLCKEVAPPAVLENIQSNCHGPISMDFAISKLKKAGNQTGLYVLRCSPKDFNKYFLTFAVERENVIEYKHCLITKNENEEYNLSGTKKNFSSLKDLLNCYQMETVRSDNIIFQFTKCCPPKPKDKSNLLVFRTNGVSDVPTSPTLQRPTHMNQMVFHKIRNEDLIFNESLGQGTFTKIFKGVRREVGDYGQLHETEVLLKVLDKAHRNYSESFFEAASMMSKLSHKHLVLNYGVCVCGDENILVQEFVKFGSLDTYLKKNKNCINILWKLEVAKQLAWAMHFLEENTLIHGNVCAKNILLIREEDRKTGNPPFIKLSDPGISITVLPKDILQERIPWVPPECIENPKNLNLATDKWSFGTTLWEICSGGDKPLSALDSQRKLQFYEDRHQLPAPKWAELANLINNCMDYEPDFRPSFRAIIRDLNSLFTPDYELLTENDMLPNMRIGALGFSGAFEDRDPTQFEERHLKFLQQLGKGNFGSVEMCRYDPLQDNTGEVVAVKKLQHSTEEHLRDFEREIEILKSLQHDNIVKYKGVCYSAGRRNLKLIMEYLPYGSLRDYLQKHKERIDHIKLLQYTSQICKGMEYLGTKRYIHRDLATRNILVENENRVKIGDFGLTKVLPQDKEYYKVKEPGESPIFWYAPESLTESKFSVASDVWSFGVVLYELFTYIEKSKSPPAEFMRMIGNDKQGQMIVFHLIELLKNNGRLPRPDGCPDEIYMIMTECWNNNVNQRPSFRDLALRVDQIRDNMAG

For `COc1cc(C(=O)N2CCC(N3CCN(C)CC3)CC2)ccc1Nc1ncc2c(n1)N(C1CCCC1)c1ccccc1C(=O)N2C` [Compound 25, 11-cyclopentyl-2-((2-methoxy-4-(4-(4-methylpiperazin-1-yl)piperidine-1-carbonyl)phenyl)amino)-5-methyl-5H-benzo[e]pyrimido[5,4-b][1,4]diazepin-6(11H)-one], the “KINOMEscan: PRKX” value in experiment [1] is 100. Besides, in experiment [2], the “KINOMEscan: JAK2(JH1domain-catalytic)” value is listed as 95.
In the case of `COc1cc(C(=O)N2CCC(N3CCN(C)CC3)CC2)ccc1Nc1ncc2c(n1)N1CCc3cccc(c31)C(=O)N2C` [Compound 24], the “KINOMEscan: PRKX” value in experiment [1] is 87.
Turning to `COc1cc(C(=O)N2CCC(N3CCN(C)CC3)CC2)ccc1Nc1ncc2c(n1)N(C)c1ccccc1C(=O)N2C` [15 (LRRK2-IN-1)], in experiment [1], the “KINOMEscan: PRKX” value stood at 99. In experiment [2], the “KINOMEscan: JAK2(JH1domain-catalytic)” value amounted to 70.
Taken in the same sequence, the figures for `CCOc1cc(C(=O)N2CCC(N3CCN(C)CC3)CC2)ccc1Nc1ncc2c(n1)N(C1CCCC1)c1ccccc1C(=O)N2C` [Compound 26] were 100 and 100.
